30 molecules from patent publication US20100009907A1, “Glucagon-Like Peptides and Uses Thereof” (AMYLIN PHARMACEUTICALS, INC., priority 2006, published 2010) can be followed below.

Where no end group is shown, it is not given here.

The term IC50 denotes the midpoint of a concentration-inhibition curve.

The target in assay [1] is T1, GLP-1 receptor (RINm5F cell membranes) (Rattus norvegicus, UniProt P32301).
T1 construct: RINm5F insulinoma cells expressing endogenous GLP-1 receptors; endogenous in cells; host or cells: RINm5F cell membranes
T1 sequence (P32301 22-463): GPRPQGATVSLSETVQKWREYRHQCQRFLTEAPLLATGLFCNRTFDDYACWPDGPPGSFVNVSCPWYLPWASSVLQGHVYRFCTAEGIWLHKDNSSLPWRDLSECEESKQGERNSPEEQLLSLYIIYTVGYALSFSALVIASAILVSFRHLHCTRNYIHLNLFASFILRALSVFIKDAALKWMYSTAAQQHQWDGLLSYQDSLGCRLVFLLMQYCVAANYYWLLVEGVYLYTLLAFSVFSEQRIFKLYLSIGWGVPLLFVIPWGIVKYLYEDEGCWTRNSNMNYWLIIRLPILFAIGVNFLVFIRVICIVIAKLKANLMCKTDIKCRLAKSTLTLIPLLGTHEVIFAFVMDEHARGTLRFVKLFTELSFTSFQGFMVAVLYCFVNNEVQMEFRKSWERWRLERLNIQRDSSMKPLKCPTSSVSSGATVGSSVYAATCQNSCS
The assay can be described thus: GLP-1 receptor binding assay (GLP RBA), [125I]GLP-1 displacement. Particulars: [125I]GLP-1 tracer. How it is done: Reaction mixtures are filtered through glass filter pads presoaked with 0.3% PEI solution and rinsed with ice-cold phosphate buffered saline. Bound counts are determined using a scintillation counter. Binding affinities are calculated using GraphPad Prism software (GraphPad Software, Inc., San Diego, Calif.).

The target in assay [2] is T2, RINm5f cells expressing endogenous GLP-1, calcitonin, and GIP receptors (Rattus norvegicus, UniProt P32301).
T2 construct: RINm5f cells expressing endogenous GLP-1, calcitonin, and GIP receptors; endogenous in cells; host or cells: RINm5f cells
T2 sequence (P32301 22-463): T1 sequence (P32301 22-463)
The assay can be described thus: GLP/GIP/CT cAMP (RIN) assay. The format is cell-based. As to the method: In addition, receptor binding can be measured using cells prepared from confluent cultures of RINm5f cells expressing endogenous GLP-1, calcitonin, and GIP receptors. Cells, and peptide or buffer solution are combined in 384-well plates. After a 30-minute incubation at room temperature in air, cAMP content is measured as recommended in the Perkin-Elmer AlphaScreen kit instructions.
Cells, and peptide or buffer solutions are combined in 384-well plates and incubated at room temperature in air for 30-minutes. cAMP content can then be measured according to recommendations in the Perkin-Elmer AlphaScreen™ kit instructions using the Perkin Elmer Fusion fluorimeter and data are analyzed using XLfit software (IDBS).

For assay [3], the target named is endogenous GLP-1, calcitonin, and GIP receptors of RINm5f cells. The assay can be described thus: cell-based or functional assay.
In assay [4] the target is T3, GLP-1 receptor (endogenous, RINm5F cell membranes; rat thyroid carcinoma 6-23 clone 6 cells) (rat, UniProt P32301 22-463).
T3 construct: whole, on cells
T3 sequence (looked up): T1 sequence (P32301 22-463)
The assay can be described thus: displacement of [125I]GLP-1 from RINm5F cell membranes (GLP RBA). How it is done: GLP-1 receptor binding activity and affinity can be measured using a binding displacement assay in which the receptor source is RINm5F cell membranes, and the ligand is [¹²⁵I]GLP-1. Homogenized RINm5F cell membranes are incubated in 20 mM HEPES buffer with 40,000 cpm [¹²⁵I]GLP-1 tracer, and varying concentrations of test compound for 60 minutes at 23° C. with constant mixing. Reaction mixtures are filtered through glass filter pads presoaked with 0.3% PEI solution and rinsed with ice-cold phosphate buffered saline. Bound counts are determined using a scintillation counter. Binding affinities are calculated using GraphPad Prism software (GraphPad Software, Inc., San Diego, Calif.).

Assay [5] deals with T3, GLP-1 receptor (endogenous, RINm5F cell …). The assay is described as follows: cell-based or functional assay.

“HAEGTFTNDMTNYLEEKAAKEFVGWLIKGRS-NH2 (C-terminus assumed) [compound 6]” came in with an IC50 in assay [1] of 1 nM. Also, the “GLP/GIP/CT cAMP(RIN) EC50” value in assay [2] was determined as 1.23 nM.

“HAEGTFTSDVTQQLDEKAAKEFIDWLINGGPSSGAPPPS-NH2 (C-terminus assumed) [compound 9]”: the “GLP/GIP/CT cAMP(RIN) EC50” value in assay [2] was 0.28 nM.

In the case of “HADGTFTNDMTSYLDAKAARDFVSWLARSDKS-NH2 [compound 52]”, the “GLP/GIP/CT cAMP(RIN) EC50” value in assay [2] was 382 nM.

Regarding `CC[C@H](C)[C@H](NC(=O)[C@H](CC(C)C)NC(=O)[C@H](Cc1c[nH]c2ccccc12)NC(=O)[C@H](CC(=O)O)NC(=O)[C@@H](NC(=O)[C@H](Cc1ccccc1)NC(=O)[C@H](CCC(=O)O)NC(=O)[C@H](CCCCN)NC(=O)[C@H](C)NC(=O)[C@H](C)NC(=O)[C@H](CCCCN)NC(=O)[C@H](CCC(=O)O)NC(=O)[C@H](CC(=O)O)NC(=O)[C@H](CC(C)C)NC(=O)[C@H](CCC(N)=O)NC(=O)[C@H](CCC(N)=O)NC(=O)[C@@H](NC(=O)[C@@H](NC(=O)[C@H](CC(=O)O)NC(=O)[C@H](CO)NC(=O)[C@@H](NC(=O)[C@H](Cc1ccccc1)NC(=O)[C@@H](NC(=O)CNC(=O)[C@H](CCC(=O)O)NC(=O)[C@H](C)NC(=O)[C@@H](N)Cc1c[nH]cn1)[C@@H](C)O)[C@@H](C)O)C(C)C)[C@@H](C)O)[C@@H](C)CC)C(=O)N[C@@H](CC(N)=O)C(N)=O` [compound 7], the 50% inhibitory concentration (IC50) in assay [1] turned out to be 3 nM. The “GLP/GIP/CT cAMP(RIN) EC50” value in assay [2] is 4.7 nM.

For the molecule “HAEGTFTSDVTQQLDEKAAKEFIDALINGGPSKEIIS-NH2 (C-terminus assumed) [compound 13]”, in assay [1], the half-inhibitory concentration (IC50) is 74 nM. The “GLP/GIP/CT cAMP(RIN) EC50” value in assay [2] is 196 nM.

With “HAEGTYTNDVTEYLEEKAAKEFIEWLIN-NH2 (C-terminus assumed) [compound 24]”, the “GLP/GIP/CT cAMP(RIN) EC50” value in assay [2] came to 0.85 nM.

Molecule “HAEGTYTNDVTEYLEEKAAKEFIEWLIGKPKKIRYS-NH2 (C-terminus assumed) [compound 35]” gave a half-maximal inhibitory concentration (IC50) in assay [1] of 0.28 nM.

For the molecule “HAEGTYTNDVTEYLEEKAAKEFIEWLINGGPSKEIIS-NH2 (C-terminus assumed) [compound 21]”, the “GLP/GIP/CT cAMP(RIN) EC50” value in assay [2] is 1 nM.

In the case of “HAEGTYTNDVTEYLEEKAAKFIEWLIKGKPKKIRYS-NH2 (C-terminus assumed) [compound 31]”, the 50% inhibitory concentration (IC50) in assay [1] stood at 19 nM.

Regarding “HADGTYTSDVSSYLQDQAAKDFITWLKSGQPKPDAVETRSVDTL-NH2 [compound 49]”, the “GLP/GIP/CT cAMP(RIN) EC50” value in assay [2] is on record as 415 nM.

As for “HAEGTFTSDVTQQLDEKAAKEFIDWLINGGASKEIIS-NH2 (C-terminus assumed) [compound 12]”, in assay [2], the “GLP/GIP/CT cAMP(RIN) EC50” value came to 0.29 nM.

Consider “YADAPYISDVYSYLQDQVAKKWLKSGQD-NH2 [compound 51]”, for which, in assay [2], the “GLP/GIP/CT cAMP(RIN) EC50” value was found to be 971 nM.

In the case of “HGEGTYTNDVTQFLEEKAAKEFIDWLIKGKPKKQRLS-NH2 (C-terminus assumed) [compound 55]”, the “GLP/GIP/CT cAMP(RIN) EC50” value in assay [2] is recorded as 0.576 nM.

“HADGTYTSDVSSYLQDQAAKDFITWLKSGQPKPDAVET-NH2 [compound 48]” returned an IC50 in assay [1] of 34 nM. Moreover, the “GLP/GIP/CT cAMP(RIN) EC50” value in assay [2] was 14 nM.

“HAEGTYTNDVTEYLEEKAAKEFIEWLIKGPKKIRYS-NH2 (C-terminus assumed) [compound 36]” showed an IC50 in assay [1] of 0.36 nM.

In the case of “HAEGTYTNDVTEYLEEKAAKEFIEWLIPKKIRYS-NH2 (C-terminus assumed) [compound 32]”, the IC50 in assay [1] amounted to 22 nM.

For the molecule “HAEGTYTNDVTEYLEEKAAKEFIEWLIK-NH2 (C-terminus assumed) [compound 25]”, the “GLP/GIP/CT cAMP(RIN) EC50” value in assay [2] was 0.53 nM.

With `CC[C@H](C)[C@H](NC(=O)[C@H](CC(C)C)NC(=O)[C@H](Cc1c[nH]c2ccccc12)NC(=O)[C@H](CC(=O)O)NC(=O)[C@@H](NC(=O)[C@H](Cc1ccccc1)NC(=O)[C@H](CCC(=O)O)NC(=O)[C@H](CCCCN)NC(=O)[C@H](C)NC(=O)[C@H](C)NC(=O)[C@H](CCCCN)NC(=O)[C@H](CCC(=O)O)NC(=O)[C@H](CC(=O)O)NC(=O)[C@H](CC(C)C)NC(=O)[C@H](CCC(N)=O)NC(=O)[C@H](CCC(N)=O)NC(=O)[C@@H](NC(=O)[C@@H](NC(=O)[C@H](CC(=O)O)NC(=O)[C@H](CO)NC(=O)[C@@H](NC(=O)[C@H](Cc1ccccc1)NC(=O)[C@@H](NC(=O)CNC(=O)[C@H](CCC(=O)O)NC(=O)[C@H](C)NC(=O)[C@@H](N)Cc1c[nH]cn1)[C@@H](C)O)[C@@H](C)O)C(C)C)[C@@H](C)O)[C@@H](C)CC)C(=O)N[C@@H](CC(N)=O)C(=O)NCC(=O)NCC(=O)N1CCC[C@H]1C(=O)N[C@@H](CO)C(=O)N[C@@H](CCCCN)C(=O)N[C@@H](CCC(=O)O)C(=O)N[C@H](C(=O)N[C@H](C(=O)N[C@@H](CO)C(N)=O)[C@@H](C)CC)[C@@H](C)CC` [compound 11], in assay [2], the “GLP/GIP/CT cAMP(RIN) EC50” value was found to be 0.59 nM.

Consider “HAEGTFTSDVTQQLEEKAAKEFIEWLIKGKPKKIRYS-NH2 (C-terminus assumed) [compound 22]”, for which the “GLP/GIP/CT cAMP(RIN) EC50” value in assay [2] is on record as 0.1 nM.

B1: SEQ ID NO 52 (peptide)
peptide: HADGTFTNDMTSYLDAKAARDFVSWLARSDKS
notes: also called nmGLP-1 peptide; naturally occurring nmGLP-1
On to B1, for which the GLP/GIP/CT cAMP(RIN) EC50 in assay [3] was 382 nM. Besides, the IC50 in assay [4] turned out to be 0.9 nM.

B2: SEQ ID NO 49 (peptide)
peptide: HADGTYTSDVSSYLQDQAAKDFITWLKSGQPKPDAVETRSVDTL
notes: as for B1
Consider B2, for which, in assay [3], the GLP/GIP/CT cAMP(RIN) EC50 turned out to be 415 nM. In addition, the IC50 in assay [4] is 74 nM.

B3: SEQ ID NO 51 (peptide)
peptide: YADAPYISDVYSYLQDQVAKKWLKSGQD
notes: as for B1
As for B3, the GLP/GIP/CT cAMP(RIN) EC50 in assay [3] came out at 971 nM. In assay [4], the IC50 stood at 111 nM.

As for HGEGTYTNDVTQFLEEKAAKEFIDWLIKGKPKKQRLS (also called nmGLP-1 analog) [SEQ ID NO 55], the GLP/GIP/CT cAMP(RIN) EC50 in assay [3] amounted to 0.576 nM. In addition, the IC50 in assay [4] turned out to be 0.05 nM.

In the case of HAEGTYTNDVTEYLEEKAAKEFIEWLIKGKPKKIRY (also called nmGLP-1 analog) [SEQ ID NO 34], in assay [5], the “GLP-1 cAMP (6-23) EC50” value turned out to be 0.095 nM. The IC50 in assay [4] came to 15 nM.

In the case of HAEGTYTNDVTEYEEKAAKEFIEWLIKGKPKKIRYS (also called nmGLP-1 analog) [SEQ ID NO 38], the “GLP-1 cAMP (6-23) EC50” value in assay [5] stood at 104 nM. Besides, in assay [4], the 50% inhibitory concentration (IC50) was 42 nM.

With HAEGTYTNDTEYLEEKAAKEFIEWLIKGKPKKIRYS (also called nmGLP-1 analog) [SEQ ID NO 39], the “GLP-1 cAMP (6-23) EC50” value in assay [5] is above 1000 nM. Further, the IC50 in assay [4] stood at 61 nM.

As to HAEGTYTNDVTEYLEKAAKEFIEWLIKGKPKKIRYS (also called nmGLP-1 analog) [SEQ ID NO 29], in assay [5], the “GLP-1 cAMP (6-23) EC50” value was determined as 930 nM. The IC50 in assay [4] was 91 nM.

For HAEGTYTNDVTELEEKAAKEFIEWLIKGKPKKIRYS (also called nmGLP-1 analog) [SEQ ID NO 33], the “GLP-1 cAMP (6-23) EC50” value in assay [5] is 145 nM. This molecule displayed an IC50 in assay [4] of 81 nM.

Take HAEGTYTNDVTYLEEKAAKEFIEWLIKGKPKKIRYS (also called nmGLP-1 analog) [SEQ ID NO 41]: in assay [5], the “GLP-1 cAMP (6-23) EC50” value came out at 220 nM. For the same molecule, the IC50 in assay [4] turned out to be 9 nM.

For the molecule HAEGTYTNDVTEYLEEAAKEFIEWLIKGKPKKIRYS (also called nmGLP-1 analog) [SEQ ID NO 30], in assay [5], the “GLP-1 cAMP (6-23) EC50” value was above 1000 nM. The IC50 in assay [4] came out at 537 nM.
